Test results as given in PMC10770490, “Two distinct modes of action of molecular glues in the plant hormone co-receptor COI1-JAZ system” (iScience, 2023).
Where two headings read alike, the source gives them in different places.

What was measured:
COI1 [1] = molecular target: T1, COI1 (Arabidopsis thaliana, UniProt O04197); experiment: Differential scanning fluorimetry (DSF) assay, COI1 alone; format: binding; details: for shift in the melting point of COI1: COI1 alone, substance titrated
T1 construct: GST (N, cleaved yes); made in house; host or cells: Sf9 insect cells
Experimental: (§1) COR/COR-MO/CFA-Ile were dissolved in DMSO, (3R,7S)/(3R,7R)-JA-Ile and cis-OPDA were dissolved in ethanol, JA was dissolved in sterilized water to generate 10 mM stock solutions and diluted with corresponding solvent for preparation of 100 μM and 1 mM stock solutions, respectively. JAZ1/9 peptides were dissolved in sterilized water to generate 10 mM stock solutions and diluted to prepare 100 μM stock solutions. […] DSF experiments were carried out using StepOnePlus Real-Time PCR System (Thermo Fisher Scientific, Inc., MA, US). Protein Thermal Shift Dye (Thermo Fisher Scientific, Inc., MA, US) was used as the reporter dye. […] Samples were heated from 25 °C to 95 °C. The denaturation curve was obtained using Protein Thermal Shift Software (Thermo Fisher Scientific, Inc., MA, US) to afford ΔTm value for each condition. An average ΔTm value of three independent measurements was plotted, and ΔTm dose-response curves were analyzed with nonlinear curve-fitting analysis to evaluate Ka and Kd values using KaleidaGraph software (v4.1.1, Synergy Software).
(§2) The determination of the Kd value was conducted by curve fitting the dose-response ΔTm values. Experiments were performed in triplicate to obtain the mean and S.D. (shown as error bars). Dose-response curves were analyzed with the nonlinear curve-fitting analysis to evaluate apparent Ka and Kd values using KaleidaGraph v4.1.1 software.

COI1-JAZ1 = molecular target: T2, COI1-JAZ1 (Arabidopsis thaliana, UniProt O04197+Q9LMA8, DEL221-253); experiment: biochemical; format: binding
T2 construct: GST (N, cleaved yes); made in house; host or cells: Sf9 insect cells (COI1-ASK1); JAZ peptide by chemical synthesis
T2 sequence (Q9LMA8 200-220, stated change not applied, one chain of several): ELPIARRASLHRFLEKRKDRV
Experimental: as §1, with “JAZ1/9” for “COR/COR-MO/CFA-Ile were dissolved in DMSO, (3R,7S)/(3R,7R)-JA-Ile and cis-OPDA were dissolved in ethanol, JA was dissolved in sterilized water to generate 10 mM stock solutions and diluted with corresponding solvent for preparation of 100 μM and 1 mM stock solutions, respectively. JAZ1/9”
as §2

[2] = Isomerization under DSF conditions analyzed by UPLC-MS/MS; format: physicochemical; details: DSF heating conditions
From the text: Thus, some amount of (3R, 7S)-JA-Ile still exists under the DSF heating conditions.

JAZP1 = test system: T3, JAZP1; experiment: Isothermal titration calorimetry (iTC), JAZP1 only; format: binding, Arabidopsis thaliana; details: 150 μM ligand into JAZP1 (10 μM), only heat of dilution
T3 construct: made in house; host or cells: chemical peptide synthesis
Experimental: (§3) The experiments were performed with iTC 200 Microcalorimeter (MicroCal, Malvern Panalytical, UK) at 25°C. GST-COI1 concentration was determined by BCA assay (Thermo Fisher Scientific, Inc., MA, US) using NanoPhotometerN60 (IMPLEN GmbH, Germany). […] The measurements were carried out by 19 × 2 μL successive injections of solutions (initial injection of 0.4 μL), with a 180s spacing time between injections, stirring of 750 rpm, and a reference power of 5 μcal/s. The measured heat changes of the binding reactions were integrated and processed using the standard “one set of sites” model implemented in the Origin (version 7.0) software package to determine the binding stoichiometry (n) and the equilibrium dissociation constant (Kd) and other thermodynamic parameters (ΔG, ΔH, ΔS).

GST-COI1 = molecular target: T4, GST-COI1 (Arabidopsis thaliana, UniProt O04197); experiment: Isothermal titration calorimetry (iTC), GST-COI1 only; format: binding
T4 construct: made in house; host or cells: Sf9 insect cells
T4 sequence (O04197 1-592): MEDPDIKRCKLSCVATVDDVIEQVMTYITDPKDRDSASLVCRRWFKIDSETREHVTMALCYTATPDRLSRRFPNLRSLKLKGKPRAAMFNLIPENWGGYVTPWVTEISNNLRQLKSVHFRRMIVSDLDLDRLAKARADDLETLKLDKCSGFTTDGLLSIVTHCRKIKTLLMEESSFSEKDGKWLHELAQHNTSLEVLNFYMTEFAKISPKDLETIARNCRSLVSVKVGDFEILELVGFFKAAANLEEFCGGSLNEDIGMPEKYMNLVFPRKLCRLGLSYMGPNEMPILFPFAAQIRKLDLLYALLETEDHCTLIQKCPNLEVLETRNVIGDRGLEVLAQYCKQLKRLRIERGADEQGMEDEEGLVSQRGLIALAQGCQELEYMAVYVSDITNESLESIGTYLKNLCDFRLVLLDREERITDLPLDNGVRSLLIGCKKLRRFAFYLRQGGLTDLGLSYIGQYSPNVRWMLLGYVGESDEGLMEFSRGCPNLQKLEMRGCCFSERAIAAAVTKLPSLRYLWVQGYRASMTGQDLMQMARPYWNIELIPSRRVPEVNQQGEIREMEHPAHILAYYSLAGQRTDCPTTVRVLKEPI
T4 sequence (Q39255 1-160 partner): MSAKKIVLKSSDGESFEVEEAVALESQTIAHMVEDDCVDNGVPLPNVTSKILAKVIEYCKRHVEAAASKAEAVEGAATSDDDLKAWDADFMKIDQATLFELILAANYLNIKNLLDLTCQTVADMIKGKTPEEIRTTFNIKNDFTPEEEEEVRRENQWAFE
Experimental: as §3

GST-COI1/JAZP1 = molecular target: T5, GST-COI1/JAZP1 (Arabidopsis thaliana, UniProt O04197+Q9LMA8, DEL221-253); experiment: Isothermal titration calorimetry (iTC), GST-COI1/JAZP1; format: binding
T5 construct: made in house; host or cells: Sf9 insect cells (GST-COI1/ASK1); JAZ peptide by chemical synthesis
Experimental: The experiments were performed with iTC 200 Microcalorimeter (MicroCal, Malvern Panalytical, UK) at 25°C. […] The measurements were carried out by 19 × 2 μL successive injections of solutions (initial injection of 0.4 μL), with a 180s spacing time between injections, stirring of 750 rpm, and a reference power of 5 μcal/s. The measured heat changes of the binding reactions were integrated and processed using the standard “one set of sites” model implemented in the Origin (version 7.0) software package to determine the binding stoichiometry (n) and the equilibrium dissociation constant (Kd) and other thermodynamic parameters (ΔG, ΔH, ΔS).

COI1-JAZ9 [3] = molecular target: T6, COI1-JAZ9 (Arabidopsis thaliana, UniProt O04197+Q8W4J8); experiment: DSF assay, COI1 with JAZ9 degron peptide (JAZP9); format: binding
T6 sequence (Q8W4J8 218-238, one chain of several): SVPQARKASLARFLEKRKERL
Experimental: as §1, §2

[4] = parameters: method as in PMID 19349968; details: after 1 h of heating at 95°C ref 12; cited from earlier work
COI1-JAZ9 [5] = molecular target: T6, COI1-JAZ9; parameters: method as in PMID 19349968; details: pull-down assay, times stronger ref 12; cited from earlier work
COI1-JAZP1 = molecular target: COI1-JAZP1; parameters: method as in PMID 20927106; details: previously obtained ref 19; cited from earlier work
COI1 [6] = molecular target: T1, COI1; details: read-out: Kd (COI1, iTC assay); previously reported using the iTC assay ref 18; cited from earlier work

Structure (SMILES): CC/C=C\C[C@H]1C(=O)CC[C@@H]1CC(=O)O (racemic) [racemic jasmonic acid, jasmonic acid]
- shift in the melting point of COI1 (COI1 [1]; DSF): no shift
- effect of addition of JAZP1/9 on the shift in melting point (COI1-JAZ1; DSF, COI1 with JAZP1/9): did not affect the shift in melting point

Structure (SMILES): CC/C=C\C[C@@H]1C(=O)CC[C@@H]1CC(=O)N[C@H](C(=O)O)[C@@H](C)CC [(3R, 7S)-JA-Ile, (3R, 7S)-jasmonoyl-L-isoleucine]
- (3R, 7R)-JA-Ile formed by isomerization under DSF conditions [2]: 63.9%
- (3R, 7S)-JA-Ile remaining under DSF conditions [2]: 36.1%
- interaction between JAZP1-ligand (JAZP1): no interaction
- Kd (GST-COI1): 11 µM
- -TΔS (GST-COI1; iTC, GST-COI1): 13.3 kcal/mol
- ΔG (GST-COI1; iTC, GST-COI1): -6.8 kcal/mol
- ΔH (GST-COI1; iTC, GST-COI1): -20.0 kcal/mol
- n (binding stoichiometry) (GST-COI1; iTC, GST-COI1, N = 1 set manually due to low C condition): 1.00
- Kd (COI1-JAZ1; read-out: Kd COI1-JAZ1): 17.7 µM
- -TΔS (GST-COI1/JAZP1): 14.8 kcal/mol
- n (binding stoichiometry) (GST-COI1/JAZP1): 0.641±0.0063
- ΔG (GST-COI1/JAZP1): -9.5 kcal/mol
- ΔH (GST-COI1/JAZP1): -24.3 kcal/mol
- Kd (COI1-JAZ9 [3]): 7.39 µM
- (3R, 7S)-JA-Ile isomerized to (3R, 7R)-JA-Ile [4]: 65%

Structure (SMILES): CC[C@H]1C=C(C(=O)N[C@H](C(=O)O)[C@@H](C)CC)[C@H]2CCC(=O)[C@H]2C1 [CFA-Ile, (3R, 7S)-coronafacyl L-Ile]
- Kd (COI1 [1]): 14.1 µM
- shift in the melting point of COI1 (COI1 [1]; DSF): significant shift
- Kd (COI1-JAZ1; read-out: Kd COI1-JAZ1): 2.66 µM
- Kd (COI1-JAZ9 [3]): 2.95 µM

Structure (SMILES): CCC1C=C(C(=O)N[C@H](C(=O)O)C(C)C)C2CCC(=O)C2C1 (stereo partly drawn) [CFA-Val, (3R, 7S)-coronafacyl L-Val]
- shift in the melting point of COI1 (COI1 [1]; DSF): significant shift
- Kd (COI1 [1]; read-out: Kd COI1, DSF, 1 μM tag-free COI1, ΔTm dose-response curve fitting): 28.1 µM
- Kd (COI1-JAZ1; DSF, 1 μM tag-free COI1 with 3 μM JAZP1, read-out: Kd COI1-JAZ1): 6.63 µM
- Kd (COI1-JAZ9 [3]; DSF, 1 μM tag-free COI1 with 3 μM JAZP9): 9.77 µM

Structure (SMILES): CC[C@H]1C=C(C(=O)N[C@@]2(C(=O)O)C[C@@H]2CC)[C@H]2CCC(=O)[C@H]2C1 [COR, coronatine]
- affinity for COI1-JAZ9 relative to (3R, 7S)-JA-Ile (COI1-JAZ9 [5]): approximately 100 times
- Kd (COI1 [1]): 4.08 µM
- shift in the melting point of COI1 (COI1 [1]; DSF): shifted to a higher temperature
- Kd (COI1-JAZ1; read-out: Kd COI1-JAZ1): 0.6 µM
- Kd (COI1-JAZP1): ~0.11 µM
- Kd (COI1-JAZ9 [3]): 0.29 µM
- Kd (COI1 [6]): 0.96 µM

Structure (SMILES): CC[C@H]1C=C(C(=O)N[C@@]2(C(=O)O)C[C@@H]2CC)[C@H]2CCC(=NOC)[C@H]2C1 [COR-MO]
- Kd (COI1 [1]): 2.65 µM
- shift in the melting point of COI1 (COI1 [1]; DSF): shifted to a higher temperature
- Kd (COI1-JAZ1; read-out: Kd COI1-JAZ1): 2.31 µM
- Kd (COI1-JAZ9 [3]): 2.67 µM

Structure (SMILES): CCC=CCC1C(=O)CCC1CC(=O)NC1(C(=O)O)CC1CC [JA-CMA, (3R, 7S)/(3R, 7R)-jasmonoyl CMA]
- shift in the melting point of COI1 (COI1 [1]; DSF): little or no shift
- Kd (COI1-JAZ1): 33.5 µM
- Kd (COI1-JAZ9 [3]): 24.2 µM

Structure (SMILES): CC/C=C\C[C@@H]1C(=O)C=C[C@@H]1CCCCCCCC(=O)O [cis-OPDA, (+)-cis-12-oxo-phytodienoic acid]
- shift in the melting point of COI1 (COI1 [1]; DSF): no shift
